From PMC9513850, “Receptor-binding domain-anchored peptides block binding of severe acute respiratory syndrome coronavirus 2 spike proteins with cell surface angiotensin-converting enzyme 2” (Frontiers in Microbiology, 2022)
“Also recorded” adds a separate entry of the source.

What was measured:
[1] = tested on: S-trimer-ACE2 binding, 293T-ACE2hR cells; type: cell-based, SARS-CoV-2 (S-trimer); human (hACE2); conditions: for blocking of S-trimer binding onto 293T-ACE2hR cells, lower concentrations: 10 μM peptide and below, S-trimer 0.001 μM; for blocking of S-trimer binding onto 293T-ACE2hR cells, lower concentrations / blocking of S-trimer binding onto 293T-ACE2hR cells: premix 1 h, then 1 h on cells, room temperature, HRP anti-6X His tag, TMB, OD370 nm; for blocking of S-trimer binding onto 293T-ACE2hR cells: 50 μM peptide vs. 0.001 μM S-trimer (50,000-fold), p < 0.05 mark vs. vehicle, Student's t-test; for behaviour of C2 and C6 in the competition assay: Figure 3
[2] = tested on: S-trimer-ACE2 binding, recombinant ACE2 proteins; test: Blocking of S-trimer binding onto recombinant ACE2 (ELISA); set-up: species or system SARS-CoV-2 (S-trimer); conditions: ACE2 coated 5 μg/ml, S-trimer 0.01 μM premixed with 0.5, 1.65 and 5 μM peptide (up to 500:1)
Description: Then, 293T-ACE2hR cells were substituted by recombinant ACE2 proteins and coated onto ELISA plates in the other measurement setting. In brief, recombinant ACE2 proteins (Novoprotein) were immobilized overnight at room temperature on ELISA plates at a 5 μg/ml concentration in 0.1 M NaHCO3, pH 9.6. The plates were then blocked with 10% fetal calf serum for 2 h and washed with tris-buffered saline solution containing 0.1% Tween-20 [[…] (PBST) buffer]. […] The following procedures were described above for the 293T-ACE2hR cells setting.
FIGURE 3 The potential blocking effect of peptides on the binding of S-trimer onto cellular or soluble angiotensin-converting enzyme 2 (ACE2). […] The peptide SBP1 was used as a positive and peptide SBP2 as the negative control. *p < 0.05, vs. vehicle, all by Student’s t-test.

[3] = tested on: recombinant SARS-CoV-2 S-trimer proteins; test: Phage display (PhD-12) panning against S-trimer; type: binding; conditions: phage-displayed sequence, after panning against S-trimer
[4] = tested on: recombinant SARS-CoV-2 S-RBD; test: Phage display (PhD-12) panning against S-RBD; type: binding; conditions: phage-displayed sequence, after panning against S-RBD
[5] = tested on: ACE2 binding onto S-RBD proteins; set-up: method as in Zhang et al., 2020; conditions: ref Zhang et al., 2020; cited from earlier work
[6] = tested on: cell surface S-RBD proteins; set-up: method as in Zhang et al., 2020; conditions: ref Zhang et al., 2020; cited from earlier work
S-RBD proteins = tested on: S-RBD proteins; set-up: method as in Zhang et al., 2020; conditions: bio-layer interferometry; ref Zhang et al., 2020; cited from earlier work

Row | Sequence | blocking of S-trimer binding onto 293T-ACE2hR cells, lower concentrations [1] | blocking of S-trimer binding onto 293T-ACE2hR cells [1] | behaviour of C2 and C6 in the competition assay [1] | blocking of S-trimer binding onto recombinant ACE2 [2] | enrichment by S-trimer [3] | enrichment by S-RBD [4] | competition with ACE2 binding onto S-RBD [5] | association with cell surface S-RBD proteins [6] | association with S-RBD proteins (S-RBD proteins)
1 | DHAQRYGAGHSG [C2] | not at lower concentrations (10 μM and below) | inhibited S-trimer binding onto 293T-ACE2hR cells at high concentrations (50 μM); also recorded: a blocking effect was observed for C2 and C6 | C2 and C6 behaved similarly in the competition assay | neither for the settings of S-trimer binding onto recombinant ACE2 proteins; also recorded: Failure of 500-fold overdose of C2 or C6 peptides to block S-trimers binding with their receptors | only C2 was present in S-trimer selected phages | enriched by S-RBD |  |  | 
2 | HWKAVNWLKPWT [C6] | not at lower concentrations (10 μM and below) | inhibited S-trimer binding onto 293T-ACE2hR cells at high concentrations (50 μM); also recorded: a blocking effect was observed for C2 and C6 | C2 and C6 behaved similarly in the competition assay | neither for the settings of S-trimer binding onto recombinant ACE2 proteins; also recorded: Failure of 500-fold overdose of C2 or C6 peptides to block S-trimers binding with their receptors |  | enriched by S-RBD |  |  | 
3 | IEEQAKTFLDKFNHEAEDLFYQSK [SBP1] |  | still not for SBP1 or SBP2 peptides |  |  |  |  | nor did they outcompete ACE2 binding onto S-RBD proteins | neither associated with cell surface S-RBD proteins | at the level of micromolar scales
4 | TFLDKFNHEAED [SBP2, reference compound] |  | still not for SBP1 or SBP2 peptides |  |  |  |  |  |  | 
